According to ChEMBL document CHEMBL3785050, “Synthesis, biological evaluation and molecular docking studies of 2-piperazin-1-yl-quinazolines as platelet aggregation inhibitors and ligands of integrin αIIbβ3” (Bioorg Med Chem Lett, 2016):
pIC50: −log10 of the molar value.

Key:
[1] = Antiplatelet activity in human platelet rich plasma assessed as inhibition of ADP-induced platelet aggregation by Born's method; format: functional
[2] = target: Integrin alpha-IIb/beta-3 (Homo sapiens, UniProt P05106+P08514); experiment: Inhibition of FITC-labelled fibrinogen binding to integrin alpha2b beta3 receptor in human platelet cells; format: cell-based
Chain of Integrin alpha-IIb/beta-3 (P05106 27-788 limits assumed): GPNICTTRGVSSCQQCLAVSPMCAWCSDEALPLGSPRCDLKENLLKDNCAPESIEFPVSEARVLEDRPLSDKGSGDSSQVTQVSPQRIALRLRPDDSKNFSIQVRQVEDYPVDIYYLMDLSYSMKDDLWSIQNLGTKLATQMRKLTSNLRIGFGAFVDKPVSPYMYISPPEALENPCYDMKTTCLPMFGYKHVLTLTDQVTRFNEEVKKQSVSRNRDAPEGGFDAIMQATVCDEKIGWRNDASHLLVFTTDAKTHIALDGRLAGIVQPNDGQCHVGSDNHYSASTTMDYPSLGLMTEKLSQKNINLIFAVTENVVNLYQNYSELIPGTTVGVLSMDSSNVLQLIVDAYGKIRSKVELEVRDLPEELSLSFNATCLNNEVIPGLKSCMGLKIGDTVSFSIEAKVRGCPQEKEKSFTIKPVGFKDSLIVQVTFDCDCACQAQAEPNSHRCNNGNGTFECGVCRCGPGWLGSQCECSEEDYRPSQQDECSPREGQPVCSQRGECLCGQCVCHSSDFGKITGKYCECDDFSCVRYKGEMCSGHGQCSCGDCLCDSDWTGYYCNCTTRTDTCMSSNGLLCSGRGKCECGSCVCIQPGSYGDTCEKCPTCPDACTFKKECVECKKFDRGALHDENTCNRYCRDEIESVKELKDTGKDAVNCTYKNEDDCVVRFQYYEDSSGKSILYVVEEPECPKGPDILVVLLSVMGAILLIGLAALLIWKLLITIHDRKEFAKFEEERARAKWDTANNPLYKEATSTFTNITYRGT
Chain of Integrin alpha-IIb/beta-3 (P08514 32-887 limits assumed): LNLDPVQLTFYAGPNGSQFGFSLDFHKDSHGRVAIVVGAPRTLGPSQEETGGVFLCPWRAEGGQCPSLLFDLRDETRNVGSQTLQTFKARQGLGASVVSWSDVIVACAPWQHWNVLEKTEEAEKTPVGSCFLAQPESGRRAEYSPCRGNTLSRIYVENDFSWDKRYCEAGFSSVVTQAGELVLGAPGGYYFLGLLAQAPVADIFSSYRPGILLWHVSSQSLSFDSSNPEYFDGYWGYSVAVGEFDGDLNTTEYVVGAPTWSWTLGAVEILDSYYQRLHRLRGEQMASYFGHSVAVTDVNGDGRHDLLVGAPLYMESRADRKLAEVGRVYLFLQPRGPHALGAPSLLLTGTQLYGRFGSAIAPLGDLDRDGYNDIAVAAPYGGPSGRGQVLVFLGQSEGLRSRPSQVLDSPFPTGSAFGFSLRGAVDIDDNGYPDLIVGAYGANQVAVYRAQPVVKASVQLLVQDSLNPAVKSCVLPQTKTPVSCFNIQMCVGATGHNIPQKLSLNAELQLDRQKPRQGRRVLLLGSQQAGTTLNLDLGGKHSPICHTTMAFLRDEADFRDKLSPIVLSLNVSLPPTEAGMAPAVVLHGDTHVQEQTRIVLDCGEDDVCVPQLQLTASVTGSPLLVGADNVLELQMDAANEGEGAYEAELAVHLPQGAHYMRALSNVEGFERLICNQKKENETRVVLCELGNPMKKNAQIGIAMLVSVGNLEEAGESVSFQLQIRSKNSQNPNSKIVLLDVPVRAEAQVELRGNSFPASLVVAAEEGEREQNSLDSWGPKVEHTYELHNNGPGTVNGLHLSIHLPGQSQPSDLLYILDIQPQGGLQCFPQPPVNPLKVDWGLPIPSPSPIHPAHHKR
Chain of Integrin alpha-IIb/beta-3 (P08514 891-1039 limits assumed): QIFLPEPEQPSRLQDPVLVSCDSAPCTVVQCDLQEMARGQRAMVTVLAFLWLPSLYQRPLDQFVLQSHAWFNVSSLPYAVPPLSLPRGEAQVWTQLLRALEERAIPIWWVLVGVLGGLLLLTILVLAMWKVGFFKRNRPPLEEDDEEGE

SMILES	pIC50 [1]	pIC50 [2]
CCC(=O)Nc1ccc2nc(N3CCNCC3)[nH]c(=O)c2c1	6.77	7.26
NCCCCCC(=O)Nc1ccc2nc(N3CCNCC3)nc(-c3ccccc3)c2c1	4.24	–
NCc1ccc(C(=O)Nc2ccc3nc(N4CCNCC4)[nH]c(=O)c3c2)cc1	5.72	–
NCC[C@H](NC(=O)OCc1ccccc1)C(=O)Nc1ccc2nc(N3CCNCC3)[nH]c(=O)c2c1	8.00	8.80
NCCCC(=O)Nc1ccc2nc(N3CCNCC3)nc(-c3ccccc3)c2c1	7.31	–
CC(C)COC(=O)N[C@@H](CN)C(=O)Nc1ccc2nc(N3CCNCC3)[nH]c(=O)c2c1	7.40	8.74
CCCCS(=O)(=O)N[C@@H](Cc1ccc(OCCCCC2CCNCC2)cc1)C(=O)O [TIROFIBAN]	7.52	–
O=C(Nc1ccc2nc(N3CCNCC3)[nH]c(=O)c2c1)c1ccc(C2CCNCC2)cc1	6.24	–
NCCCCC(=O)Nc1ccc2nc(N3CCNCC3)nc(-c3ccccc3)c2c1	4.32	–
NCCC(=O)Nc1ccc2nc(N3CCNCC3)nc(-c3ccccc3)c2c1	6.24	–
NCCCCC(=O)Nc1ccc2nc(N3CCNCC3)[nH]c(=O)c2c1	5.85	–
NC[C@H](NC(=O)OCc1ccccc1)C(=O)Nc1ccc2nc(N3CCNCC3)[nH]c(=O)c2c1	7.72	8.82
O=C(Nc1ccc2nc(N3CCNCC3)[nH]c(=O)c2c1)c1ccc(N2CCNCC2)cc1	5.89	7.70
NCCCCCC(=O)Nc1ccc2nc(N3CCNCC3)[nH]c(=O)c2c1	5.89	–
CCOC(=O)N[C@@H](CN)C(=O)Nc1ccc2nc(N3CCNCC3)[nH]c(=O)c2c1	7.22	–
CCC(=O)Nc1ccc2nc(N3CCNCC3)nc(-c3ccccc3)c2c1	6.14	–
